Several values for one entry are separate records, joined by “and”; a condition that tells them apart may be missing. Identical values can stand only once.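 Cells were grown in 96-well plates and exposed to each compound for 48 hours at five concentrations; endpoints were interpolated linearly between bracketing concentrations, or set to the highest concentration if not reached. The concentration for 50% growth inhibition is given as GI50. TGI is the concentration that stops growth completely.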
What was measured:
Experiment in all cases: NCI tumour cell line growth inhibition, 48 h
U251 CNS = system: U251 CNS
OVCAR-8 ovarian = system: OVCAR-8 ovarian
K-562 leukemia = system: K-562 leukemia
HT29 colon = system: HT29 colon
SF-268 CNS = system: SF-268 CNS
UACC-257 melanoma = system: UACC-257 melanoma
RXF 393 renal = system: RXF 393 renal
RPMI-8226 leukemia = system: RPMI-8226 leukemia
CAKI-1 renal = system: CAKI-1 renal
MDA-N = system: MDA-N
SNB-75 CNS = system: SNB-75 CNS
MCF7 breast = system: MCF7 breast
SF-295 CNS = system: SF-295 CNS
SK-OV-3 ovarian = system: SK-OV-3 ovarian
OVCAR-4 ovarian = system: OVCAR-4 ovarian
MALME-3M melanoma = system: MALME-3M melanoma
NCI-H23 lung = system: NCI-H23 lung
HOP-62 NSCLC = system: HOP-62 NSCLC
OVCAR-3 ovarian = system: OVCAR-3 ovarian
NCI-H226 lung = system: NCI-H226 lung
SK-MEL-2 melanoma = system: SK-MEL-2 melanoma
HCC-2998 colon = system: HCC-2998 colon
SW-620 colon = system: SW-620 colon
IGROV1 ovarian = system: IGROV1 ovarian
HCT-116 colon = system: HCT-116 colon
SK-MEL-5 melanoma = system: SK-MEL-5 melanoma
LOX IMVI melanoma = system: LOX IMVI melanoma
KM12 colon = system: KM12 colon
ACHN renal = system: ACHN renal
A498 renal = system: A498 renal
COLO 205 colon = system: COLO 205 colon
UACC-62 melanoma = system: UACC-62 melanoma
UO-31 renal = system: UO-31 renal
NCI-H460 lung = system: NCI-H460 lung
NCI/ADR-RES ovarian = system: NCI/ADR-RES ovarian
A549 NSCLC = system: A549 NSCLC
PC-3 prostate = system: PC-3 prostate
MDA-MB-435 = system: MDA-MB-435
NCI-H522 lung = system: NCI-H522 lung
786-0 renal = system: 786-0 renal
HOP-92 NSCLC = system: HOP-92 NSCLC
M14 melanoma = system: M14 melanoma
CCRF-CEM leukemia = system: CCRF-CEM leukemia
SNB-19 CNS = system: SNB-19 CNS
T-47D breast = system: T-47D breast
SR leukemia = system: SR leukemia
SK-MEL-28 melanoma = system: SK-MEL-28 melanoma
HS 578T breast = system: HS 578T breast
TK-10 renal = system: TK-10 renal
SF-539 CNS = system: SF-539 CNS
SN12C renal = system: SN12C renal
BT-549 breast = system: BT-549 breast
HCT-15 colon = system: HCT-15 colon
DU-145 prostate = system: DU-145 prostate
OVCAR-5 ovarian = system: OVCAR-5 ovarian
MOLT-4 leukemia = system: MOLT-4 leukemia
EKVX NSCLC = system: EKVX NSCLC
MDA-MB-231 breast = system: MDA-MB-231 breast
HL-60(TB) leukemia = system: HL-60(TB) leukemia

C[C@H](CCC(=O)O)[C@H]1CC[C@H]2[C@@H]3CC[C@@H]4C[C@H](O)CC[C@]4(C)[C@H]3CC[C@]12C
GI50 (U251 CNS): > 100 µM and 21.3 µM | TGI (U251 CNS): > 100 µM and 43.7 µM | GI50 (OVCAR-8 ovarian): > 100 µM and 41.3 µM | TGI (OVCAR-8 ovarian): > 100 µM | GI50 (K-562 leukemia): > 100 µM and 17.4 µM | TGI (K-562 leukemia): > 100 µM and 43.8 µM | GI50 (HT29 colon): > 100 µM and 21.6 µM | TGI (HT29 colon): > 100 µM and 57.7 µM | GI50 (SF-268 CNS): > 100 µM and 36 µM | TGI (SF-268 CNS): > 100 µM | GI50 (UACC-257 melanoma): > 100 µM and 28.3 µM | TGI (UACC-257 melanoma): > 100 µM and 67.6 µM | GI50 (RXF 393 renal): > 100 µM and 26 µM | TGI (RXF 393 renal): > 100 µM and 62.4 µM | GI50 (RPMI-8226 leukemia): > 100 µM and 22.9 µM | TGI (RPMI-8226 leukemia): > 100 µM and 52.7 µM | GI50 (CAKI-1 renal): > 100 µM and 22.2 µM | TGI (CAKI-1 renal): > 100 µM and 47.1 µM | GI50 (MDA-N): > 100 µM and 19.9 µM | TGI (MDA-N): > 100 µM and 46.3 µM | GI50 (SNB-75 CNS): 44.6 µM and 24.6 µM | TGI (SNB-75 CNS): > 100 µM and 59.4 µM | GI50 (MCF7 breast): > 100 µM and 36.5 µM | TGI (MCF7 breast): > 100 µM | GI50 (SF-295 CNS): > 100 µM and 37.2 µM | TGI (SF-295 CNS): > 100 µM | GI50 (SK-OV-3 ovarian): > 100 µM and 40.3 µM | TGI (SK-OV-3 ovarian): > 100 µM | GI50 (OVCAR-4 ovarian): > 100 µM and 32 µM | TGI (OVCAR-4 ovarian): > 100 µM and 84.5 µM | GI50 (MALME-3M melanoma): > 100 µM and 40.2 µM | TGI (MALME-3M melanoma): > 100 µM and 74.1 µM | GI50 (NCI-H23 lung): > 100 µM and 17.9 µM | TGI (NCI-H23 lung): > 100 µM and 33.7 µM | GI50 (HOP-62 NSCLC): > 100 µM and 28.2 µM | TGI (HOP-62 NSCLC): > 100 µM and 73.8 µM | GI50 (OVCAR-3 ovarian): > 100 µM and 19 µM | TGI (OVCAR-3 ovarian): > 100 µM and 33.3 µM | GI50 (NCI-H226 lung): > 100 µM and 37 µM | TGI (NCI-H226 lung): > 100 µM | GI50 (SK-MEL-2 melanoma): > 100 µM and 21.5 µM | TGI (SK-MEL-2 melanoma): > 100 µM and 45.6 µM | GI50 (HCC-2998 colon): > 100 µM and 19.8 µM | TGI (HCC-2998 colon): > 100 µM and 40.2 µM | GI50 (SW-620 colon): > 100 µM and 27 µM | TGI (SW-620 colon): > 100 µM and 78.7 µM | GI50 (IGROV1 ovarian): > 100 µM and 40 µM | TGI (IGROV1 ovarian): > 100 µM | GI50 (HCT-116 colon): > 100 µM and 18.4 µM | TGI (HCT-116 colon): > 100 µM and 33.2 µM | GI50 (SK-MEL-5 melanoma): > 100 µM and 18.3 µM | TGI (SK-MEL-5 melanoma): > 100 µM and 35.3 µM | GI50 (LOX IMVI melanoma): > 100 µM and 28.9 µM | TGI (LOX IMVI melanoma): > 100 µM and 80.3 µM | GI50 (KM12 colon): > 100 µM and 24.4 µM | TGI (KM12 colon): > 100 µM and 67.2 µM | GI50 (ACHN renal): > 100 µM and 37.8 µM | TGI (ACHN renal): > 100 µM | TGI (A498 renal): > 100 µM | GI50 (COLO 205 colon): > 100 µM and 25.5 µM | TGI (COLO 205 colon): > 100 µM and 54.6 µM | GI50 (UACC-62 melanoma): > 100 µM and 35.3 µM | TGI (UACC-62 melanoma): > 100 µM | GI50 (UO-31 renal): > 100 µM and 14.3 µM | TGI (UO-31 renal): > 100 µM and 27.3 µM | GI50 (NCI-H460 lung): > 100 µM and 18.2 µM | TGI (NCI-H460 lung): > 100 µM and 32.3 µM | GI50 (NCI/ADR-RES ovarian): > 100 µM and 29.3 µM | TGI (NCI/ADR-RES ovarian): > 100 µM and 82.4 µM | GI50 (A549 NSCLC): > 100 µM and 18.4 µM | TGI (A549 NSCLC): > 100 µM and 46.2 µM | GI50 (PC-3 prostate): > 100 µM and 23.9 µM | TGI (PC-3 prostate): > 100 µM and 57.6 µM | GI50 (MDA-MB-435): > 100 µM and 22.6 µM | TGI (MDA-MB-435): > 100 µM and 50.8 µM | GI50 (NCI-H522 lung): > 100 µM and 25.5 µM | TGI (NCI-H522 lung): > 100 µM and 54.5 µM | GI50 (786-0 renal): > 100 µM and 31.8 µM | TGI (786-0 renal): > 100 µM | GI50 (HOP-92 NSCLC): > 100 µM and 34.1 µM | TGI (HOP-92 NSCLC): > 100 µM and 99.2 µM | GI50 (M14 melanoma): > 100 µM and 17.3 µM | TGI (M14 melanoma): > 100 µM and 42 µM | GI50 (CCRF-CEM leukemia): > 100 µM | TGI (CCRF-CEM leukemia): > 100 µM | GI50 (SNB-19 CNS): > 100 µM and 24.3 µM | TGI (SNB-19 CNS): > 100 µM and 90.7 µM | GI50 (T-47D breast): > 100 µM and 19.9 µM | TGI (T-47D breast): > 100 µM and 46.1 µM | GI50 (SR leukemia): > 100 µM and 14.6 µM | TGI (SR leukemia): > 100 µM and 32.8 µM | GI50 (SK-MEL-28 melanoma): > 100 µM and 27 µM | TGI (SK-MEL-28 melanoma): > 100 µM and 85.3 µM | GI50 (HS 578T breast): > 100 µM and 33.3 µM | TGI (HS 578T breast): > 100 µM and 65.8 µM | GI50 (TK-10 renal): > 100 µM and 33.6 µM | TGI (TK-10 renal): > 100 µM and 83.3 µM | GI50 (SF-539 CNS): > 100 µM and 27.6 µM | TGI (SF-539 CNS): > 100 µM and 61 µM | GI50 (SN12C renal): > 100 µM and 20.8 µM | TGI (SN12C renal): > 100 µM and 56.1 µM | GI50 (BT-549 breast): > 100 µM and 28.4 µM | TGI (BT-549 breast): > 100 µM and 74.7 µM | GI50 (HCT-15 colon): > 100 µM and 23.5 µM | TGI (HCT-15 colon): > 100 µM and 62.3 µM | GI50 (DU-145 prostate): 86.7 µM and 30 µM | TGI (DU-145 prostate): > 100 µM and 87.7 µM | GI50 (OVCAR-5 ovarian): > 100 µM and 20.7 µM | TGI (OVCAR-5 ovarian): > 100 µM and 60.3 µM | GI50 (MOLT-4 leukemia): > 100 µM and 21.5 µM | TGI (MOLT-4 leukemia): > 100 µM and 52.3 µM | GI50 (EKVX NSCLC): > 100 µM and 20 µM | TGI (EKVX NSCLC): > 100 µM and 69 µM | GI50 (MDA-MB-231 breast): > 100 µM and 28.3 µM | TGI (MDA-MB-231 breast): > 100 µM and 73.2 µM | GI50 (HL-60(TB) leukemia): > 100 µM and 15.1 µM | TGI (HL-60(TB) leukemia): > 100 µM and 32.8 µM
